Data: US7335636B2, “SPRR1A and axonal regeneration” (Yale University, priority 2001, dated 2008)
“Also recorded” adds a separate entry of the source.

Tests used:
[1] = system: E8 chick DRGs; assay: Neurite outgrowth of E8 chick DRGs triturated with SPRR1A-derived peptide; type: cell-based; details: trituration, 6 hours after plating on laminin
Description: Herpes simplex virus preparation and protein trituration. The coding region of mouse SPRR1A was amplified by PCR with an in-frame C-terminal Myc epitope and ligated to the pHSVprPUC vector. Similarly, the S100C coding region with a Myc tag was ligated to pHSVprPUC vector. The resulting plasmids were transfected into 2-2 cells with Fugene and then superinfected with 5 dl 1.2 herpes simplex virus (HSV) helper virus 1 d later as described previously (Nakamura et al., 1998; Takahashi et al., 1998, 1999). Recombinant virus was amplified through three passages and stored at −80° C. Freshly dissociated DRG neurons were allowed to adhere to cultured dishes for 30 min and then incubated with HSV preparations encoding for SPRR1A, S100C, enhanced green fluorescent protein (EGFP), or Nogo receptor. […]
(§1) DRG cultures and neurite outgrowth analysis. […] After 6-36 hr, cells were fixed and stained, and neurite outgrowth was quantified. Images of each culture were captured with Olympix Software and analyzed with Scion Image (Jin and Strittmatter, 1997; GrandPre et al., 2000; Fournier et al., 2001). The total neurite length for each neuron was determined for 50-100 neurons in each experiment. […]
An SPRR1A-derived peptide acts as an agent to promote axon regeneration. […] This 24 amino acid peptide was triturated into E8 chick DRGs and neurite length was measured 6 hours after the cells were plated on laminin (FIG. 8). […]

[2] = system: SPRR1A; assay: Immunoblot for SPRR1A protein in oligonucleotide-treated adult mouse DRG cultures; type: cell-based; details: preconditioned adult DRG neurons, 36 hr culture with oligonucleotide 10-50 μM
[3] = system: adult mouse DRG neurons; assay: Antisense experiment: neurite outgrowth and branching of adult mouse DRG cultures; type: cell-based
Description: DRG cultures and neurite outgrowth analysis. Embryonic day 7 (E7) chick, embryonic day 13 chick, or adult mouse DRGs were dissected and dissociated with 0.25% trypsin for 15 min at 37° C. For adult mouse DRG preparations, preincubation with 1 mg/ml collagenase was included. For preconditioned adult mouse DRG cultures, sciatic nerve lesions were performed 4 d before death and L3-L5 DRG dissection. Dissociated cells were preplated on tissue culture-treated plastic dishes for 1 hr at 37° C. Non-adherent cells (predominantly neurons) were collected and plated on plastic chamber slides coated with poly-L-lysine (100 μg)/laminin (10 μg/ml). In some cases, the substrate was coated with 45 ng/mm^2 bovine CNS myelin or 34 ng/mm^2 purified GST-Nogo-66 protein as described previously (Jin and Strittmatter, 1997; GrandPre et al., 2000; Fournier et al., 2001). After 6-36 hr, cells were fixed and stained, and neurite outgrowth was quantified. Images of each culture were captured with Olympix Software and analyzed with Scion Image (Jin and Strittmatter, 1997; GrandPre et al., 2000; Fournier et al., 2001). The total neurite length for each neuron was determined for 50-100 neurons in each experiment. The total number of branch points was divided by the total neurite length to obtain a branching index.
Antisense experiment. Phosphorothioate sense and antisense oligonucleotides spanning the translation initiation site (italic type) of the mouse sprr1a sequence (sense, p-thio-[…] (SEQ ID NO:4); antisense, p-thio-[…] (SEQ ID NO:5)) were generated. Adult mouse DRG cultures were incubated with purified oligonucleotides at concentrations of 10-50 μM. Immunoblot and immunohistological analysis was performed after 36 hr of culture.

[4] = system: F-actin; assay: Actin cosedimentation and immunoprecipitation assays; type: binding; details: in the presence or absence of S100C protein
Description: Actin cosedimentation assay. The actin cosedimentation protocol has been described previously (Gonzalez et al., 1998; Sakaguchi et al., 2000). Purified monomeric actin (G-actin, 25 μM; Cytoskeleton, Denver, Colo.) was incubated with recombinant SPRR1A (200 nM), GST-S100C (2 μM), or GST (2 μM) in an actin polymerization buffer (5 mM Tris, pH 8.0, 1.0 mM CaCl2, 1.0 mM DTT, 0.2 mM ATP, 100 mM KCl, 2.0 mM MgCl2) at room temperature for 60 min. Polymerized actin was sedimented by centrifugation at […] for 1 hr. Equal volumes of the particulate and supernatant fractions were analyzed by SDS-PAGE and immunoblotting.

[5] = system: chick E7 DRG neurons; assay: Neurite outgrowth of embryonic chick DRG neurons after HSV infection or protein trituration; type: cell-based
Description: Herpes simplex virus preparation and protein trituration. The coding region of mouse SPRR1A was amplified by PCR with an in-frame C-terminal Myc epitope and ligated to the pHSVprPUC vector. Similarly, the S100C coding region with a Myc tag was ligated to pHSVprPUC vector. The resulting plasmids were transfected into 2-2 cells with Fugene and then superinfected with 5 dl 1.2 herpes simplex virus (HSV) helper virus 1 d later as described previously (Nakamura et al., 1998; Takahashi et al., 1998, 1999). Recombinant virus was amplified through three passages and stored at −80° C. Freshly dissociated DRG neurons were allowed to adhere to cultured dishes for 30 min and then incubated with HSV preparations encoding for SPRR1A, S100C, enhanced green fluorescent protein (EGFP), or Nogo receptor. Recombinant SPRR1A and S100C protein were triturated into dissociated DRGs by repetitive pipetting in the presence of 1 mg/ml of protein as described previously (Jin and Strittmatter, 1997).
as §1

acetyl-HPKAPEPCNPKVPEPCQPKVPEPC-amide (Ac-HPKAPEPCNPKVPEPCQPKVPEPC-NH2; cysteine pairing not given here; listed as Mus musculus) [SEQ ID NO:3, 24 amino acid peptide consisting of three XPKXPEPC octapeptide repeats of SPRR1A]
enhancement of average neurite outgrowth ([1]; 5-25 μM peptide): 1.7 fold | enhancement of neurite outgrowth ([1]; 100-500 μM peptide): 2.5 fold

p-thio-GTGGGAACTCATGGTTAGAT (all phosphorothioate, sugars by position and methylation of C not given here) [antisense oligonucleotide]
SPRR1A protein level (immunoblot, immunohistochemistry) [2]: significantly and selectively decreased; also recorded: decreases to nearly basal levels | neurite length, preconditioned neurons ([3]; adult preconditioned DRG neurons, 36 hr, vs sense-treated): significant decrease in neurite length | axonal branching index, preconditioned neurons ([3]; adult preconditioned DRG neurons, vs sense-treated): marked increase | effect on naive neurons (do not express SPRR1A) ([3]; naive adult mouse DRG neurons): lack of effect

B1: SPRR1A: Recombinant mouse small proline-rich repeat protein SPRR1A purified from transformed Escherichia coli (protein, listed as Mus musculus)
chain: MSSHQQKQPCTVPPQLHQQQVKQPCQPPPQEPCAPKTKDPCHPVPEPCNPKGPEPCHPKAPEPCHPKAPEPCNPKVPEPCQPKVPEPCQPKVPEPCNPKVPEPCQPKAPEPCHPKAPEPCHPVVPEPCPSTVTPSPYQQKTKQK
direct physical association with F-actin [4]: no direct physical association | neurite outgrowth, protein added to the culture medium without trituration ([5]; no trituration): does not alter outgrowth | neurite outgrowth in neurons triturated with purified protein ([5]; recombinant protein triturated into DRG neurons, 1 mg/ml): increase in neurite outgrowth
